Laboratory results taken from patent publication US7691567B2, “Methods and compositions relating to fortilin, an anti-apoptotic molecule, and modulators of fortilin” (Board of Regents, the University of Texas System, priority 2000, dated 2010).
Entries after “also recorded” stand apart in the source; their conditions may differ. Like-named read-outs stand apart in the source and are kept apart here.

How the values were obtained:
[1] = test system: U2OS cells; assay: Bax-mediated apoptosis in transfected U2OS cells (apoptotic index); format: cell-based; conditions: for prevention of Bax mediated apoptosis (apoptotic index): U2OS cells cotransfected with Bax-pcDNA3, thirty hours after transfection
Method: The amount of LacZ-pFLAG was 1/10 to 1/20 (w/w) of total amounts of DNA added. Thirty hours after the transfection, cells were stained with X-gal. Blue cells represented cells expressing Bax, β-galactosidase and indicated proteins in question. At least 300 blue cells were counted and evaluated for plasma membrane morphology. Rounded cells were counted as apoptotic. Apoptotic index was calculated as the number of blue apoptotic cells divided by the number of total blue cells counted, expressed in percentage. Without the expression of Bax, there was a modest amount of background cell death noted (Lane 6). On the other hand, the presence of Bax caused 2 holds increase in the number of apoptotic cells (Lane 5). […] Taken together, the ability of Fortilin to inhibit Bax mediated apoptosis is mediated by its interaction with MCL1.

[2] = test system: HeLa cells; assay: Cell death assay: etoposide-induced apoptosis in transfected HeLa cells (apoptotic index); format: cell-based; conditions: HeLa cells overexpressing FLAG-tagged protein; 5 μg/mL etoposide 12 hours
Method: Cell death assay: The experiment was performed in duplicate and repeated at least three times. A total of […] HeLa cells were seeded in each well of a 4-well Lab-Teck™ chamber slides (Nalge Nunc International), and transfected with pFLAG containing Fortilin or other control cDNAs, using FuGENE6 (Roche). Twenty-four hours after the transfection, the cells were challenged by 5 μg/mL etoposide for 12 hours. Cells were stained for the FLAG-epitope using anti-FLAG antibody (M2, Sigma Co) and anti-mouse IgG conjugated to Rhodamine Red X (Jackson ImmunoResearch Laboratories). The nuclei were stained with DAPI (4,6-Diamidino-2-phenylindole, Sigma Co). Cells were then examined under a Zeiss AXIOSKOP fluorescent microscope (Carl Zeiss Ltd.), using appropriate filter sets. Cells that emitted red fluorescence were evaluated for their nuclear morphology. Condensed or fragmented nuclei were counted as apoptotic. An apoptotic index was then calculated as the number of red cells with apoptotic nuclear morphology divided by the number of total red cells counted and multiplied by 100.
Statistical analysis: For the analysis of statistical significance of apoptotic indices among cells transfected with different plasmids, Dunnett's T tests were performed. In all cases, the confidence intervals were 0.95 with the alpha value of 0.05. For the statistical evaluation of the significant linear trend between the amount of plasmids used for the transfection and apoptotic indices, ANOVA (Analysis of Variance) regression analysis was employed. […] For the analysis of statistical significance of possible correlation between the degree of malignancy and the indices of Fortilin immunoreactivity, Dunnett's multiple range tests were performed.

[3] = test system: H1299 cells; assay: p53-mediated apoptosis in transfected H1299 cells (apoptotic index); format: cell-based; conditions: overexpression, thirty hours after transfection
Method: Because wild-type p53 can induce apoptosis, the ability of Fortilin to prevent or inhibit p53-mediated apoptosis was examined. H1299 cells were transfected with indicated combinations of mammalian expression constructs. Thirty hours after the transfection, cells were fixed and stained for beta-galactosidase activities. Cells that were round in shape with significant membrane irregularity were counted as apoptotic (FIG. 5). Apoptotic index was calculated as (Blue cells with apoptotic plasma membrane morphology)/(Total blue cells counted)×100.

[4] = test system: p53 transactivation of Bax gene; assay: p53 transactivation of Bax gene, p-Bax-RE-Luc luciferase reporter in H1299 cells; format: cell-based; conditions: twenty-four hours after transfection
Method: The ability of Fortilin to interfere with transactivation of the Bax gene by p53 was investigated. Non-small cell lung cancer cell line H1299 cells were transfected with p53-pcDNA3, LacZ-pFLAG, p-Bax-RE-Luc (a plasmid encoding the Luciferase gene under the control of the Bax responsive element) and pFLAG vector encoding Bcl-2, MCL1, Fortilin or truncated Fortilin as indicated in FIG. 6. Twenty-four hours after the transfection, luciferase activity was measured and normalized to the β-galactosidase activity, the latter representing transfection efficiency.
Next, studies were conducted to determine whether the inhibition was dosage dependent. H1299 cells were transfected with p53-pcDNA3, LacZ-pFLAG, p-Bax-RE-Luc and various amount of Fortilin-pFLAG. The total amount of DNA added was adjusted by the addition of empty pFLAG vector. Twenty-four hours after the transfection, luciferase activity was measured and normalized to the β-galactosidase activity.

[5] = test system: caspase 3-like activity; assay: Assay of caspase 3-like activity in U2OS stable transfectants (Z-DEVD-AFC); format: cell-based
Method: Assay of caspase 3-like activity. Approximately 2×10^6 U2OS stable transfectants, either expressing Fortilin (U2OS.F) or harboring empty expression vector (U2OS.E), both of which have been characterized above, were challenged either with dimethyl sulfoxide (DMSO) (vehicle) or with etoposide at a final concentration of 10 μg/mL for 48 hours. Caspase 3-like activity was then determined as previously described (Mannick et al., 1999). In brief, cytosolic proteins were extracted in hypotonic cell lysis buffer (25 mM HEPES, pH 7.5, 5 mM MgCl2, 5 mM EDTA, 5 mM dithiothreitol, 0.05% phenylmethylsulfonyl fluoride [PMSF]; all from Sigma) by three cycles of freezing and thawing. The protein concentration of samples was determined by using a BioRad Bradford protein assay kit (BioRad). Ten micrograms of cytosolic extracts were added to caspase assay buffer (312.5 mM HEPES, pH 7.5, 31.25% sucrose, 0.3125% CHAPS) with Z-DEVD-AFC as substrates (CalBiochem, San Diego, Calif.). Release of 7-amido-4-(trifluoromethyl)coumarin (AFC) was quantified, after 2 hours of incubation at 37° C. (or, in the case of time course experiment, every 10 minutes), using a Fluoroskan system (Thermo-Labsystems, Helsinki, Finland) set to an excitation value of 355 nm and emission value of 525 nm. The results were expressed as relative fluorescence unit (R.F.U.) per microgram of protein.

[6] = test system: U2OS cells; conditions: U2OS stable transfectants of HA-tagged Fortilin or deletion mutants, 5 μg/mL etoposide 48 hours
From the text: Generation and characterization of U2OS cells stably expressing Fortilin. U2OS cells were transfected with empty pcDNA6, a mammalian expression vector containing a blasticidine resistance gene (Invitrogen, Carlsbad, Calif.), or with pcDNA6 vector encoding wild-type Fortilin, by using FuGENE6 (Roche Molecular Biochemicals) according to the manufacturer's instructions. Transfected cells were selected for approximately 3 weeks and characterized by Western blot analysis. For the cytotoxicity assay, U2OS cells stably expressing wild-type Fortilin (U2OS.F) and U2OS cells stably harboring empty pcDNA6 (U2OS.E) were seeded in a 96 well plate in quadruplicate. For the investigation of dose response, cells were challenged with various concentrations of etoposide (0-20 μg/mL) for 48 hours. For the time course study, cells were challenged with 5 μg/mL of etoposide and harvested after various incubation periods (0-96 hours). In both cases, the cell media were assayed for the lactate dehydrogenase (LDH) activity released from the cytosol of damaged cells, using a cytotoxicity detection kit (Roche Molecular Biochemicals) according to the manufacturer's instructions. The cytotoxicity index was calculated as follows: (LDH activity in the media−background LDH activity)÷(LDH activity in the medium of cells lysed by 1% Triton X-100−background LDH activity)×100.
Cell death assay. U2OS cells stably expressing Fortilin or its mutants were seeded in 96-well plates in triplicate. Cells were then challenged with 5 μg/mL of etoposide (Sigma) for 48 hours. Then the cell media were assayed for the lactate dehydrogenase (LDH) activity released from the cytosol of damaged cells, using a Cytotoxicity Detection Kit (Roche Molecular Biochemicals), according to the manufacturer's instructions. The cytotoxicity index was calculated as follows: (LDH activity in the media−background LDH activity)/(LDH activity in the medium of the cells lysed by 1% Triton X-100−background LDH activity)×100.
Statistical analysis. For analysis of the statistical significance of differences in cytotoxicity indices among cells stably transfected with Fortilin, its mutants or control plasmids, Student's t-test was performed using a commercial software (Minitab Inc., State College, Pa.). In all cases, a P-value less than 0.05 was considered to be statistically significant.

Bax: pro-apoptotic protein expressed from Bax-pcDNA3 to induce apoptosis [reference compound]
increase in the number of apoptotic cells ([1]; U2OS cells, Bax expression versus without Bax): 2 holds

Bcl-xL: a Bcl-2 family protein, overexpressed as anti-apoptotic comparator
prevention of Etoposide-induced apoptosis (apoptotic index) [2]: prevented HeLa cells from undergoing Etoposide-induced apoptosis in a statistically significant fashion

MCL1: Myeloid Cell Leukemia 1, a Bcl-2 homologue, anti-apoptotic protein [reference compound]
suppression of p53 induced apoptosis (apoptotic index) [3]: statistically significant (p<0.001) suppression of p53-induced apoptosis; also recorded: statistically significant (p<0.001) suppression of p53 induced apoptosis | prevention of Bax mediated apoptosis (apoptotic index) [1]: prevented cells from undergoing Bax mediated apoptosis | inhibition of p53 transactivation of Bax gene (luciferase normalized to β-galactosidase) [4]: inhibited p53 transactivation of the Bax gene | prevention of Etoposide-induced apoptosis (apoptotic index) [2]: prevented HeLa cells from undergoing Etoposide-induced apoptosis in a statistically significant fashion

COc1cc([C@@H]2c3cc4c(cc3[C@@H](O[C@@H]3O[C@@H]5CO[C@@H](C)O[C@H]5[C@H](O)[C@H]3O)[C@H]3COC(=O)[C@H]23)OCO4)cc(OC)c1O [etoposide, reference compound]
caspase-3-like activity index ([5]; control U2OS.E cells (empty vector), etoposide 10 μg/mL 48 hours): 1488.1±58.7 R.F.U./μg protein | increase in caspase-3-like activity ([5]; control U2OS.E cells, etoposide challenge vs no etoposide): 9.4 fold

Bcl-2: anti-apoptotic protein overexpressed as comparator [reference compound]
suppression of p53 induced apoptosis (apoptotic index) [3]: statistically significant (p<0.001) suppression of p53-induced apoptosis; also recorded: statistically significant (p<0.001) suppression of p53 induced apoptosis

B1: FortilinΔ23-172: mutant of Fortilin representing 23rd-172nd amino acids of Fortilin (protein)
chain: IADGLCLEVEGKMVSRTEGNIDDSLIGGNASAEGPEGEGTESTVITGVDIVMNHHLQETSFTKEAYKKYIKDYMKSIKGKLEEQRPERVKPFMTGAAEQIKHILANFKNYQFFIGENMNPDGMVALLDYREDGVTPYMIFFKDGLEMEKC
suppression of p53 induced apoptosis (apoptotic index) ([3]; listed as Fortilin(23-172)): did not significantly prevent p53-mediated apoptosis; also recorded: did not significantly prevent p53 mediated apoptosis | prevention of Bax mediated apoptosis (apoptotic index) [1]: failed to prevent cells from undergoing Bax mediated apoptosis | inhibition of p53 transactivation of Bax gene (luciferase normalized to β-galactosidase) ([4]; listed as truncated Fortilin (23-172)): inhibited p53 transactivation of the Bax gene | cytotoxicity index relative to control transfectants [6]: could not prevent cells from undergoing etoposide-induced cell death and instead sensitized the cells to etoposide-induced cell death | cytotoxicity index relative to control transfectants ([6]; listed as fortilinΔ23-172): significantly higher than that of control cells

B2: FortilinΔ46-172: Fortilin deletion mutant that lacks 26% of wild type Fortilin (protein)
chain: SLIGGNASAEGPEGEGTESTVITGVDIVMNHHLQETSFTKEAYKKYIKDYMKSIKGKLEEQRPERVKPFMTGAAEQIKHILANFKNYQFFIGENMNPDGMVALLDYREDGVTPYMIFFKDGLEMEKC
modifications: left off: small tags and cut ends
notes: Fortilin deletion mutant that lacks 26% of wild type Fortilin
cytotoxicity index relative to control transfectants [6]: significantly lower than the cytotoxicity index of control cells | cytotoxicity index relative to control transfectants ([6]; listed as FortilinΔ45-172): still capable of protecting cells, albeit modestly, from etoposide-induced cell death
